In the NIST ThermoML archive (doi:10.1021/je050050p):
Numbers after ± are expanded uncertainties.

Settings: Liquid, Vibrating tube method

## CN(C)C=O [dimethylformamide]
313.12 K, 1008 kPa
  mass density: 930.41 ± 0.41 kg/m3
313.12 K, 2010 kPa
  mass density: 931.09 ± 0.41 kg/m3
313.12 K, 3012 kPa
  mass density: 931.73 ± 0.41 kg/m3
313.12 K, 4008 kPa
  mass density: 932.38 ± 0.41 kg/m3
313.12 K, 5004 kPa
  mass density: 933.04 ± 0.41 kg/m3
313.12 K, 6002 kPa
  mass density: 933.68 ± 0.41 kg/m3
313.12 K, 7002 kPa
  mass density: 934.32 ± 0.41 kg/m3
313.12 K, 8004 kPa
  mass density: 934.97 ± 0.41 kg/m3
313.12 K, 9000 kPa
  mass density: 935.62 ± 0.41 kg/m3
313.12 K, 10004 kPa
  mass density: 936.27 ± 0.41 kg/m3
313.12 K, 11004 kPa
  mass density: 936.89 ± 0.41 kg/m3
313.12 K, 12004 kPa
  mass density: 937.51 ± 0.41 kg/m3
313.12 K, 13005 kPa
  mass density: 938.14 ± 0.41 kg/m3
313.12 K, 14007 kPa
  mass density: 938.78 ± 0.41 kg/m3
313.12 K, 15002 kPa
  mass density: 939.37 ± 0.41 kg/m3
313.12 K, 16012 kPa
  mass density: 940 ± 0.41 kg/m3
313.12 K, 17009 kPa
  mass density: 940.59 ± 0.41 kg/m3
313.12 K, 18015 kPa
  mass density: 941.19 ± 0.41 kg/m3
313.12 K, 19010 kPa
  mass density: 941.79 ± 0.41 kg/m3
313.12 K, 20013 kPa
  mass density: 942.42 ± 0.41 kg/m3
313.12 K, 21009 kPa
  mass density: 942.99 ± 0.41 kg/m3
313.12 K, 22011 kPa
  mass density: 943.58 ± 0.41 kg/m3
313.12 K, 23019 kPa
  mass density: 944.17 ± 0.41 kg/m3
313.12 K, 24013 kPa
  mass density: 944.75 ± 0.41 kg/m3
313.12 K, 25011 kPa
  mass density: 945.35 ± 0.41 kg/m3
323.06 K, 1014 kPa
  mass density: 920.89 ± 0.41 kg/m3
323.06 K, 2007 kPa
  mass density: 921.59 ± 0.41 kg/m3
323.06 K, 3026 kPa
  mass density: 922.27 ± 0.41 kg/m3
323.06 K, 4006 kPa
  mass density: 922.95 ± 0.41 kg/m3
323.06 K, 5016 kPa
  mass density: 923.62 ± 0.41 kg/m3
323.06 K, 6010 kPa
  mass density: 924.3 ± 0.41 kg/m3
323.06 K, 7006 kPa
  mass density: 924.99 ± 0.41 kg/m3
323.06 K, 8010 kPa
  mass density: 925.64 ± 0.41 kg/m3
323.06 K, 9012 kPa
  mass density: 926.32 ± 0.41 kg/m3
323.06 K, 10014 kPa
  mass density: 926.99 ± 0.41 kg/m3
323.06 K, 11011 kPa
  mass density: 927.65 ± 0.41 kg/m3
323.06 K, 12013 kPa
  mass density: 928.31 ± 0.41 kg/m3
323.06 K, 13007 kPa
  mass density: 928.97 ± 0.41 kg/m3
323.06 K, 14011 kPa
  mass density: 929.62 ± 0.41 kg/m3
323.06 K, 15008 kPa
  mass density: 930.29 ± 0.41 kg/m3
323.06 K, 16014 kPa
  mass density: 930.92 ± 0.41 kg/m3
323.06 K, 17004 kPa
  mass density: 931.54 ± 0.41 kg/m3
323.06 K, 18006 kPa
  mass density: 932.19 ± 0.41 kg/m3
323.06 K, 19006 kPa
  mass density: 932.82 ± 0.41 kg/m3
323.06 K, 20005 kPa
  mass density: 933.44 ± 0.41 kg/m3
323.06 K, 21002 kPa
  mass density: 934.07 ± 0.42 kg/m3
323.06 K, 22013 kPa
  mass density: 934.7 ± 0.42 kg/m3
323.06 K, 23015 kPa
  mass density: 935.31 ± 0.42 kg/m3
323.06 K, 24008 kPa
  mass density: 935.92 ± 0.42 kg/m3
323.06 K, 25012 kPa
  mass density: 936.53 ± 0.42 kg/m3
333 K, 1008 kPa
  mass density: 911.34 ± 0.41 kg/m3
333 K, 2018 kPa
  mass density: 912.08 ± 0.41 kg/m3
333 K, 3006 kPa
  mass density: 912.78 ± 0.41 kg/m3
333 K, 4005 kPa
  mass density: 913.51 ± 0.41 kg/m3
333 K, 5005 kPa
  mass density: 914.23 ± 0.41 kg/m3
333 K, 6008 kPa
  mass density: 914.97 ± 0.41 kg/m3
333 K, 7003 kPa
  mass density: 915.68 ± 0.41 kg/m3
333 K, 8009 kPa
  mass density: 916.39 ± 0.41 kg/m3
333 K, 9010 kPa
  mass density: 917.11 ± 0.41 kg/m3
333 K, 10008 kPa
  mass density: 917.81 ± 0.41 kg/m3
333 K, 11008 kPa
  mass density: 918.51 ± 0.41 kg/m3
333 K, 12008 kPa
  mass density: 919.2 ± 0.41 kg/m3
333 K, 13013 kPa
  mass density: 919.9 ± 0.41 kg/m3
333 K, 14006 kPa
  mass density: 920.57 ± 0.41 kg/m3
333 K, 15007 kPa
  mass density: 921.24 ± 0.41 kg/m3
333 K, 16011 kPa
  mass density: 921.92 ± 0.42 kg/m3
333 K, 17019 kPa
  mass density: 922.59 ± 0.42 kg/m3
333 K, 18010 kPa
  mass density: 923.27 ± 0.42 kg/m3
333 K, 19004 kPa
  mass density: 923.91 ± 0.42 kg/m3
333 K, 20012 kPa
  mass density: 924.58 ± 0.42 kg/m3
333 K, 21005 kPa
  mass density: 925.24 ± 0.42 kg/m3
333 K, 22005 kPa
  mass density: 925.88 ± 0.42 kg/m3
333 K, 23014 kPa
  mass density: 926.52 ± 0.42 kg/m3
333 K, 24009 kPa
  mass density: 927.19 ± 0.42 kg/m3
333 K, 25009 kPa
  mass density: 927.83 ± 0.42 kg/m3
342.86 K, 1028 kPa
  mass density: 901.52 ± 0.41 kg/m3
342.86 K, 2020 kPa
  mass density: 902.3 ± 0.41 kg/m3
342.86 K, 3015 kPa
  mass density: 903.09 ± 0.41 kg/m3
342.86 K, 4002 kPa
  mass density: 903.84 ± 0.41 kg/m3
342.86 K, 5035 kPa
  mass density: 904.63 ± 0.41 kg/m3
342.86 K, 6026 kPa
  mass density: 905.39 ± 0.41 kg/m3
342.86 K, 7013 kPa
  mass density: 906.13 ± 0.41 kg/m3
342.86 K, 8017 kPa
  mass density: 906.89 ± 0.41 kg/m3
342.86 K, 9024 kPa
  mass density: 907.66 ± 0.41 kg/m3
342.86 K, 10012 kPa
  mass density: 908.38 ± 0.41 kg/m3
342.86 K, 11048 kPa
  mass density: 909.14 ± 0.41 kg/m3
342.86 K, 11999 kPa
  mass density: 909.83 ± 0.41 kg/m3
342.86 K, 13018 kPa
  mass density: 910.6 ± 0.42 kg/m3
342.86 K, 14029 kPa
  mass density: 911.32 ± 0.42 kg/m3
342.86 K, 15007 kPa
  mass density: 912.03 ± 0.42 kg/m3
342.86 K, 15994 kPa
  mass density: 912.71 ± 0.42 kg/m3
342.86 K, 17041 kPa
  mass density: 913.47 ± 0.42 kg/m3
342.86 K, 18012 kPa
  mass density: 914.16 ± 0.42 kg/m3
342.86 K, 19006 kPa
  mass density: 914.85 ± 0.42 kg/m3
342.86 K, 20042 kPa
  mass density: 915.55 ± 0.42 kg/m3
342.86 K, 21025 kPa
  mass density: 916.22 ± 0.42 kg/m3
342.86 K, 22008 kPa
  mass density: 916.9 ± 0.42 kg/m3
342.86 K, 23079 kPa
  mass density: 917.63 ± 0.42 kg/m3
342.86 K, 24008 kPa
  mass density: 918.25 ± 0.42 kg/m3
342.86 K, 25017 kPa
  mass density: 918.93 ± 0.42 kg/m3
352.8 K, 1040 kPa
  mass density: 891.76 ± 0.41 kg/m3
352.8 K, 2009 kPa
  mass density: 892.57 ± 0.41 kg/m3
352.8 K, 3011 kPa
  mass density: 893.41 ± 0.41 kg/m3
352.8 K, 4020 kPa
  mass density: 894.22 ± 0.41 kg/m3
352.8 K, 5050 kPa
  mass density: 895.06 ± 0.41 kg/m3
352.8 K, 6060 kPa
  mass density: 895.78 ± 0.41 kg/m3
352.8 K, 6996 kPa
  mass density: 896.53 ± 0.41 kg/m3
352.8 K, 8008 kPa
  mass density: 897.34 ± 0.41 kg/m3
352.8 K, 9034 kPa
  mass density: 898.16 ± 0.41 kg/m3
352.8 K, 10019 kPa
  mass density: 898.93 ± 0.42 kg/m3
352.8 K, 11043 kPa
  mass density: 899.73 ± 0.42 kg/m3
352.8 K, 11998 kPa
  mass density: 900.45 ± 0.42 kg/m3
352.8 K, 13028 kPa
  mass density: 901.24 ± 0.42 kg/m3
352.8 K, 14015 kPa
  mass density: 901.99 ± 0.42 kg/m3
352.8 K, 15028 kPa
  mass density: 902.74 ± 0.42 kg/m3
352.8 K, 16000 kPa
  mass density: 903.48 ± 0.42 kg/m3
352.8 K, 17011 kPa
  mass density: 904.23 ± 0.42 kg/m3
352.8 K, 17999 kPa
  mass density: 904.96 ± 0.42 kg/m3
352.8 K, 19044 kPa
  mass density: 905.73 ± 0.42 kg/m3
352.8 K, 20050 kPa
  mass density: 906.43 ± 0.42 kg/m3
352.8 K, 21038 kPa
  mass density: 907.16 ± 0.42 kg/m3
352.8 K, 21955 kPa
  mass density: 907.8 ± 0.42 kg/m3
352.8 K, 23009 kPa
  mass density: 908.57 ± 0.42 kg/m3
352.8 K, 23996 kPa
  mass density: 909.27 ± 0.43 kg/m3
352.8 K, 25056 kPa
  mass density: 910.04 ± 0.43 kg/m3
362.67 K, 1058 kPa
  mass density: 882.04 ± 0.41 kg/m3
362.67 K, 2038 kPa
  mass density: 882.89 ± 0.41 kg/m3
362.67 K, 3044 kPa
  mass density: 883.77 ± 0.41 kg/m3
362.67 K, 4027 kPa
  mass density: 884.62 ± 0.41 kg/m3
362.67 K, 5068 kPa
  mass density: 885.54 ± 0.41 kg/m3
362.67 K, 6036 kPa
  mass density: 886.37 ± 0.41 kg/m3
362.67 K, 7025 kPa
  mass density: 887.22 ± 0.41 kg/m3
362.67 K, 8027 kPa
  mass density: 888.03 ± 0.42 kg/m3
362.67 K, 9045 kPa
  mass density: 888.9 ± 0.42 kg/m3
362.67 K, 10021 kPa
  mass density: 889.71 ± 0.42 kg/m3
362.67 K, 11024 kPa
  mass density: 890.55 ± 0.42 kg/m3
362.67 K, 11996 kPa
  mass density: 891.3 ± 0.42 kg/m3
362.67 K, 13061 kPa
  mass density: 892.19 ± 0.42 kg/m3
362.67 K, 14027 kPa
  mass density: 892.95 ± 0.42 kg/m3
362.67 K, 15025 kPa
  mass density: 893.73 ± 0.42 kg/m3
362.67 K, 15987 kPa
  mass density: 894.49 ± 0.42 kg/m3
362.67 K, 17050 kPa
  mass density: 895.32 ± 0.42 kg/m3
362.67 K, 18009 kPa
  mass density: 896.08 ± 0.42 kg/m3
362.67 K, 19041 kPa
  mass density: 896.85 ± 0.42 kg/m3
362.67 K, 20032 kPa
  mass density: 897.62 ± 0.43 kg/m3
362.67 K, 21035 kPa
  mass density: 898.36 ± 0.43 kg/m3
362.67 K, 22014 kPa
  mass density: 899.1 ± 0.43 kg/m3
362.67 K, 23018 kPa
  mass density: 899.87 ± 0.43 kg/m3
362.67 K, 24007 kPa
  mass density: 900.58 ± 0.43 kg/m3
362.67 K, 25016 kPa
  mass density: 901.35 ± 0.43 kg/m3
